Laboratory results as given in ChEMBL document CHEMBL5390265, “Design, Synthesis, and Pharmacological Evaluation of Multisubstituted Pyrido[4,3-d]pyrimidine Analogues Bearing Deuterated Methylene Linkers as Potent KRASG12D Inhibitors” (J Med Chem, 2023).

Assays:
A549 = assay: Antiproliferative activity against human A549 cells harboring […] assessed as inhibition of cell growth incubated for 5 days by crystal violet staining analysis; assay type: functional, cell-based; settings: Homo sapiens, A549, 120 h
AGS [1] = assay: Antiproliferative activity against human AGS cells harboring […] assessed as inhibition of cell growth incubated for 5 days by crystal violet staining analysis; assay type: functional, cell-based; settings: Homo sapiens, AGS, 120 h
ASPC1 [2] = assay: Induction of apoptosis in human ASPC1 cells harboring […] assessed as early apoptotic cells at 50 uM incubated for 24 hrs by annexin V and propidium iodide staining based flow cytometry analysis (reference value: 5.22%); assay type: functional
[3] = Metabolic stability in monkey liver microsomes assessed as intrinsic clearance at 150 uM measured after 60 mins in presence of NADPH by LC-MS/MS analysis; assay type: ADME, Macaca mulatta, Microsome; settings: rhesus monkey, read-out: CLH
[4] = Toxicity in mouse xenografted with human ASPC1 cells assessed as change in lung morphology at 20 mg/kg,ip administrated twice daily for 20 consecutive days by Hematoxylin-eosin staining based microscopic analysis; assay type: organism-based; settings: in vivo
ASPC1 [5] = assay: Antitumor activity against human ASPC1 cells xenografted in mouse assessed as inhibition of tumor growth at 10 mg/kg,ip administrated twice daily for 20 consecutive days relative to control; assay type: functional; settings: read-out: TGI
ASPC1 [6] = assay: Antitumor activity against human ASPC1 cells xenografted in mouse assessed as inhibition of tumor growth at 20 mg/kg,ip administrated twice daily for 20 consecutive days relative to control; assay type: functional; settings: read-out: TGI
AGS [7] = assay: Induction of apoptosis in human AGS cells harboring […] assessed as late apoptotic cells at 50 uM incubated for 24 hrs by annexin V and propidium iodide staining based flow cytometry analysis (reference value: 7.74%); assay type: functional
[8] = Metabolic stability in rat liver microsomes assessed as half life at 150 uM measured after 60 mins in presence of NADPH by LC-MS/MS analysis; assay type: ADME, Microsome
[9] = Metabolic stability in dog liver microsomes assessed as intrinsic clearance at 150 uM measured after 60 mins in presence of NADPH by LC-MS/MS analysis; assay type: ADME, Canis lupus familiaris, Microsome; settings: read-out: CLH
[10] = Toxicity in mouse xenografted with human ASPC1 cells assessed as change in heart morphology at 10 mg/kg,ip administrated twice daily for 20 consecutive days by Hematoxylin-eosin staining based microscopic analysis; assay type: organism-based; settings: in vivo
[11] = Toxicity in mouse xenografted with human ASPC1 cells assessed as change in kidney morphology at 10 mg/kg,ip administrated twice daily for 20 consecutive days by Hematoxylin-eosin staining based microscopic analysis; assay type: organism-based; settings: in vivo
[12] = Toxicity in mouse xenografted with human ASPC1 cells assessed as serum creatinine level at 20 mg/kg,ip administrated twice daily for 20 consecutive days (reference value: 28.2 +/- 2.1 umol/L); assay type: organism-based; settings: in vivo
[13] = Inhibition of recombinant human His6-tagged KRAS4B G12D mutant incubated for 1 hr by HTRF assay
[14] = Metabolic stability in rat liver microsomes assessed as intrinsic clearance at 150 uM measured after 60 mins in presence of NADPH by LC-MS/MS analysis; assay type: ADME, Microsome; settings: read-out: CLH
ASPC1 [15] = assay: Induction of apoptosis in human ASPC1 cells harboring […] assessed as early apoptotic cells at 25 uM incubated for 24 hrs by annexin V and propidium iodide staining based flow cytometry analysis (reference value: 5.22%); assay type: functional
[16] = Toxicity in mouse xenografted with human ASPC1 cells assessed as change in heart morphology at 20 mg/kg,ip administrated twice daily for 20 consecutive days by Hematoxylin-eosin staining based microscopic analysis; assay type: organism-based; settings: in vivo
[17] = Toxicity in mouse xenografted with human ASPC1 cells assessed as change in spleen morphology at 10 mg/kg,ip administrated twice daily for 20 consecutive days by Hematoxylin-eosin staining based microscopic analysis; assay type: organism-based; settings: in vivo
[18] = Toxicity in mouse xenografted with human ASPC1 cells assessed as serum ratio of AST/ALT at 20 mg/kg,ip administrated twice daily for 20 consecutive days (reference value: 6.5 +/- 1.7); assay type: organism-based; settings: in vivo
[19] = Toxicity in mouse xenografted with human ASPC1 cells assessed as change in spleen morphology at 20 mg/kg,ip administrated twice daily for 20 consecutive days by Hematoxylin-eosin staining based microscopic analysis; assay type: organism-based; settings: in vivo
[20] = Toxicity in mouse xenografted with human ASPC1 cells assessed as change in liver morphology at 10 mg/kg,ip administrated twice daily for 20 consecutive days by Hematoxylin-eosin staining based microscopic analysis; assay type: organism-based; settings: in vivo
[21] = AUC in Sprague-Dawley rat at 1 mg/kg,iv measured upto 24 hrs by LC-MS/MS analysis; assay type: ADME, organism-based; set-up: dose 1 mg/kg, time < 24 hrs, route iv; settings: in vivo
ASPC1 [22] = assay: Induction of apoptosis in human ASPC1 cells harboring […] assessed as late apoptotic cells at 50 uM incubated for 24 hrs by annexin V and propidium iodide staining based flow cytometry analysis (reference value: 6.96%); assay type: functional
AGS [23] = assay: Induction of apoptosis in human AGS cells harboring […] assessed as early apoptotic cells at 25 uM incubated for 24 hrs by annexin V and propidium iodide staining based flow cytometry analysis (reference value: 4.05%); assay type: functional
[24] = Toxicity in mouse xenografted with human ASPC1 cells assessed as change in liver morphology at 20 mg/kg,ip administrated twice daily for 20 consecutive days by Hematoxylin-eosin staining based microscopic analysis; assay type: organism-based; settings: in vivo
NCI-H1299 = assay: Antiproliferative activity against human NCI-H1299 cells harboring KRAS wild type assessed as inhibition of cell growth incubated for 5 days by crystal violet staining analysis; assay type: functional, cell-based; settings: NCI-H1299, 120 h
ASPC1 [25] = assay: Antiproliferative activity against human ASPC1 cells harboring […] assessed as inhibition of cell growth incubated for 5 days by crystal violet staining analysis; assay type: functional, cell-based; settings: Homo sapiens, ASPC1, 120 h
[26] = Toxicity in mouse xenografted with human ASPC1 cells assessed as serum creatinine level at 10 mg/kg,ip administrated twice daily for 20 consecutive days (reference value: 28.2 +/- 2.1 umol/L); assay type: organism-based; settings: in vivo
AGS [27] = assay: Induction of apoptosis in human AGS cells harboring […] assessed as late apoptotic cells at 25 uM incubated for 24 hrs by annexin V and propidium iodide staining based flow cytometry analysis (reference value: 7.74%); assay type: functional
[28] = Clearance in Sprague-Dawley rat at 1 mg/kg,iv measured upto 24 hrs by LC-MS/MS analysis; assay type: ADME, organism-based; settings: in vivo
[29] = Toxicity in mouse xenografted with human ASPC1 cells assessed as serum blood urea nitrogen level at 10 mg/kg,ip administrated twice daily for 20 consecutive days (reference value: 16.3 +/- 1.6 mmol/L); assay type: organism-based; settings: in vivo
[30] = Toxicity in mouse xenografted with human ASPC1 cells assessed as change in body weight at 10 mg/kg,ip administrated twice daily for 20 consecutive days; assay type: organism-based; settings: in vivo
AGS [31] = assay: Induction of apoptosis in human AGS cells harboring […] assessed as early apoptotic cells at 50 uM incubated for 24 hrs by annexin V and propidium iodide staining based flow cytometry analysis (reference value: 4.05%); assay type: functional
[32] = Metabolic stability in dog liver microsomes assessed as half life at 150 uM measured after 60 mins in presence of NADPH by LC-MS/MS analysis; assay type: ADME, Canis lupus familiaris, Microsome
[33] = AUC in Sprague-Dawley rat at 3 mg/kg,po measured upto 24 hrs by LC-MS/MS analysis; assay type: ADME, organism-based; set-up: time < 24 hrs, dose 3 mg/kg, route po; settings: in vivo
GTPase KRas = GTPase KRas (Homo sapiens, UniProt P01116); assay: Inhibition of recombinant human GTP-bound KRAS wild type (1 to 169 residues) incubated for 1 hr by HTRF assay
[34] = Toxicity in mouse xenografted with human ASPC1 cells assessed as serum blood urea nitrogen level at 20 mg/kg,ip administrated twice daily for 20 consecutive days (reference value: 16.3 +/- 1.6 mmol/L); assay type: organism-based; settings: in vivo
[35] = Toxicity in mouse xenografted with human ASPC1 cells assessed as change in lung morphology at 10 mg/kg,ip administrated twice daily for 20 consecutive days by Hematoxylin-eosin staining based microscopic analysis; assay type: organism-based; settings: in vivo
ASPC1 [36] = assay: Induction of apoptosis in human ASPC1 cells harboring […] assessed as late apoptotic cells at 25 uM incubated for 24 hrs by annexin V and propidium iodide staining based flow cytometry analysis (reference value: 6.96%); assay type: functional
[37] = Toxicity in mouse xenografted with human ASPC1 cells assessed as change in body weight at 20 mg/kg,ip administrated twice daily for 20 consecutive days; assay type: organism-based; settings: in vivo
[38] = Toxicity in mouse xenografted with human ASPC1 cells assessed as change in kidney morphology at 20 mg/kg,ip administrated twice daily for 20 consecutive days by Hematoxylin-eosin staining based microscopic analysis; assay type: organism-based; settings: in vivo
[39] = Metabolic stability in monkey liver microsomes assessed as half life at 150 uM measured after 60 mins in presence of NADPH by LC-MS/MS analysis; assay type: ADME, Macaca mulatta, Microsome; settings: rhesus monkey
[40] = Half life in Sprague-Dawley rat at 3 mg/kg,po measured upto 24 hrs by LC-MS/MS analysis; assay type: ADME, organism-based; settings: in vivo
[41] = Half life in Sprague-Dawley rat at 1 mg/kg,iv measured upto 24 hrs by LC-MS/MS analysis; assay type: ADME, organism-based; settings: in vivo
[42] = Toxicity in mouse xenografted with human ASPC1 cells assessed as serum ratio of AST/ALT at 10 mg/kg,ip administrated twice daily for 20 consecutive days (reference value: 6.5 +/- 1.7); assay type: organism-based; settings: in vivo

[2H]C([2H])(Oc1nc(N2C[C@H]3CC[C@@H](C2)N3)c2cnc(-c3cc(N)cc4ccc(F)c(C#C)c34)c(F)c2n1)C12CCCN1CC(=C(F)F)C2 (stereo partly drawn)
IC50 (A549): 1190 nM | IC50 (AGS [1]): 0.9 nM | Activity (ASPC1 [2]): 12.4% | microsomal CLint at 150 µM [3]: 45.4 µL/min/mg | Activity [4]: Non-Toxic | inhibition in vivo at 10 mg/kg (ASPC1 [5]): 53.3% | inhibition in vivo at 20 mg/kg (ASPC1 [6]): 71.3% | Activity (AGS [7]): 13.7% | half-life at 150 µM [8]: 92.4 min | microsomal CLint at 150 µM [9]: 16.2 µL/min/mg | Activity [10]: Non-Toxic | Activity [11]: Non-Toxic | Activity [12]: 23.5 µmol/L | IC50 [13]: 1.19 nM | microsomal CLint at 150 µM [14]: 15 µL/min/mg | Activity (ASPC1 [15]): 9.56% | Activity [16]: Non-Toxic | Activity [17]: Non-Toxic | Ratio [18]: 4.5 | Activity [19]: Non-Toxic | Activity [20]: Non-Toxic | AUC at 24 h [21]: 102 ng·h/mL | Activity (ASPC1 [22]): 11.8% | Activity (AGS [23]): 8.84% | Activity [24]: Non-Toxic | IC50 (NCI-H1299): 1850 nM | IC50 (ASPC1 [25]): 1.6 nM | Activity [26]: 29.7 µmol/L | Activity (AGS [27]): 11% | clearance [28]: 168 mL/min/kg | Activity [29]: 19.2 mmol/L | Activity [30]: Non-Toxic | Activity (AGS [31]): 9.08% | half-life at 150 µM [32]: 85.6 min | AUC at 24 h [33]: 2.89 ng·h/mL | IC50 (GTPase KRas): 16.7 nM | Activity [34]: 16.7 mmol/L | Activity [35]: Non-Toxic | Activity (ASPC1 [36]): 10.8% | Activity [37]: Non-Toxic | Activity [38]: Non-Toxic | half-life at 150 µM [39]: 30.5 min | half-life [40]: 22.9 min | half-life [41]: 660 min | Ratio [42]: 4.5

[2H]C([2H])(Oc1nc(N2C[C@H]3CC[C@@H](C2)N3)c2cnc(-c3cc(O)cc4ccc(F)c(C#C)c34)c(F)c2n1)C12CCCN1CC(=C(F)F)C2 (stereo partly drawn)
IC50 (A549): 332 nM | IC50 (AGS [1]): 0.3 nM | Activity (ASPC1 [2]): 11.5% | microsomal CLint at 150 µM [3]: 57 µL/min/mg | Activity [4]: Non-Toxic | inhibition in vivo at 10 mg/kg (ASPC1 [5]): 55.3% | inhibition in vivo at 20 mg/kg (ASPC1 [6]): 73.4% | Activity (AGS [7]): 14% | half-life at 150 µM [8]: 83.5 min | microsomal CLint at 150 µM [9]: 51.8 µL/min/mg | Activity [10]: Non-Toxic | Activity [11]: Non-Toxic | Activity [12]: 22.2 µmol/L | IC50 [13]: 0.48 nM | microsomal CLint at 150 µM [14]: 16.6 µL/min/mg | Activity (ASPC1 [15]): 9.17% | Activity [16]: Non-Toxic | Activity [17]: Non-Toxic | Ratio [18]: 5.7 | Activity [19]: Non-Toxic | Activity [20]: Non-Toxic | AUC at 24 h [21]: 37.2 ng·h/mL | Activity (ASPC1 [22]): 18.7% | Activity (AGS [23]): 11.4% | Activity [24]: Non-Toxic | IC50 (NCI-H1299): 1940 nM | IC50 (ASPC1 [25]): 0.6 nM | Activity [26]: 25.9 µmol/L | Activity (AGS [27]): 9.76% | clearance [28]: 490 mL/min/kg | Activity [29]: 13.5 mmol/L | Activity [30]: Non-Toxic | Activity (AGS [31]): 13.1% | half-life at 150 µM [32]: 26.8 min | IC50 (GTPase KRas): 10.2 nM | Activity [34]: 14.1 mmol/L | Activity [35]: Non-Toxic | Activity (ASPC1 [36]): 10% | Activity [37]: Non-Toxic | Activity [38]: Non-Toxic | half-life at 150 µM [39]: 24.3 min | half-life [41]: 18.4 min | Ratio [42]: 5
